# Test results: patent US8022036B2, “Use of thymosin alpha 1 for the treatment of immunological diseases” (Sigma-Tau Industrie Farmaceutiche Riunite S.p.A., priority 2006, dated 2011)
# Tests used:
# GM-DCs or FL-DCs = assay: Cytokine production (ELISA) by murine GM-DCs or FL-DCs with Aspergillus conidia; type: cell-based, mouse; conditions: 1-MT added at 2 μM
# Text: GM-DCs or FL-DCs were obtained from purified CD14+ monocytes from healthy donors or transplanted patients (1 month post-HSCT) cultured in Iscove's modified medium for 7-9 days, in the presence of rGM-CSF (Schering-Plough, Milan, Italy) and rIL-4 (Peprotech, Inalco, Milan, Italy) or FLT3-L (Immunex Corporation, Seattle, Wash.) (Blood. 2004; 103:4232-4239). DC recovery was between 20-30% reduced in cultures from transplanted patients. Murine GM-DCs or FL-DCs were obtained from bone marrow cells for 7-9 days, as described (Blood. 2004; 103:4232-4239). Thymosin alpha 1 and sThymosin alpha 1 were added to the cultures at 20 ng/mL. DCs (>99% CD11c+ consisting of 90-95% CD8-, 5-10% CD8+, and 1-5% B220+ cells) were purified from spleens (spDCs) by magnetic-activated sorting using CD11c MicroBeads and MidiMacs (Miltenyi Biotech). DC populations were further separated into CD8−, CD8+ and B220+ fractions by means of CD8 or B220 MicroBeads (Miltenyi Biotech). DCs were pulsed in serum-free Iscove medium for 24 hours with live unopsonized Aspergillus conidia or Zymosan from Saccharomyces cerevisiae (Sigma) or CpG-ODN 2006 as described.7 Phagocytosis was done as described (Blood. 2004; 103:4232-4239). Photographs were taken using a high Resolution Microscopy Color Camera AxioCam, using the AxioVision Software Rel. 3.1 (Carl Zeiss, Milan, Italy).
# (§1) Cytokine content was assessed by enzyme-linked immunosorbent assays (Endogen Human Elisa Kits, R&D Systems and Euroclone, Milan, Italy). AID EliSpot assay kits (Amplimedical, Buttigliera Alta, Turin, Italy) were used on purified splenic CD4+ Tcells cocultured with conidia-pulsed DCs for 5 days to enumerate cytokine-producing cells (Blood. 2003; 102:3807-3814). 1-MT was used at 2 μM.
# (B) Cytokine production (ELISA) by GM-DCs or FL-DCs cultured in serum-free medium (1×10^6 cells/mL) with unopsonized Aspergillus conidia (5×10^5/mL) for 24 hours. The IDO inhibitor 1-MT was added at 2 μM. Data are aggregated results from three independent experiments. The detection limits (pg/mL) of the assays were <16 for IL-12p70 and <12 for IL-10.
# splenic CD4+ T cells = assay: Th1/T reg priming in vitro of splenic CD4+ T cells by Aspergillus-pulsed DCs (ELISPOT, flow cytometry); type: cell-based, mouse
# Method: IDO expression and functional activity were assessed as described in Nat. Immunol. 2002; 3:1097-1101. Generation, purification and activity of T reg cells Splenic CD4+ T-cells were cocultured with conidia-pulsed DCs for 5 days […] before flow cytometry or ELISPOT assay. 1-MT (Sigma-Aldrich) was used at 2 μM. CD4+CD25+ and CD4+CD25− cells (>90% pure on FACS analysis) were separated by magnetic cell sorting from lung and TLN (J. Immunol. 2006; 176:1712-1723). For T reg cell inhibition, 5×10^4 TLN T reg cells were added to 3×10^5 CD4+CD25− cells, both from transplanted mice, stimulated with 3×10^4 autologous Aspergillus conidia-pulsed spDCs or with or 1.5×10^5 allogeneic spDCs from naïve donor mice for five days before H^3-thymidine labeling. Purified peritoneal CD 11b+Gr−1+PMN (>98% pure on FACS analysis) (2×10^6) were exposed to resting conidia in the presence of 4×10^5 CD4+CD25+ for 60 min for oxidant production or 24 hours for cytokine production (J. Immunol. 2006; 176:1712-1723).
# as §1
# (A) Frequency of IFN-γ-/IL-10-producing splenic CD4+ T cells activated by Aspergillus-pulsed Thymosin alpha 1-treated GM-DCs or FL-DCs. 1-MT was present in selected cultures. Plates were read with the AID-EliSpot Reader System (Amplimedical). Values are means±SE per 10^6 cells of samples from 3-5 experiments, calculated using replicates of serial twofold dilutions of cells. (*) P<0.05, conidia-exposed versus unexposed cells; (**) P<0.05, thymosin-exposed versus unexposed cells.
# (B) Phenotypic analysis of CD4+ cells cultured alone (−) or as in (A). Numbers represent the percentage of double positive cells.
smiles,measurement,setting,value
"Cn1cc(CC(N)C(=O)O)c2ccccc21 (racemic) [1-MT, 1-methyl-DL-tryptophan]",IL-10 production by DCs in response to Thymosin alpha 1,GM-DCs or FL-DCs,blocked
same,expansion of Foxp3+CTLA4+CD25+ T cells co-cultured with FL-DCs,splenic CD4+ T cells; 1-MT,appeared to interfere with the expansion
same,IFN-γ-producing cells,"splenic CD4+ T cells; IDO blockade, 1-MT 2 μM",had no effect
same,activation of IL-10-producing CD4+ cells,"splenic CD4+ T cells; IDO blockade, 1-MT 2 μM",prevented activation
